# Values quoted from earlier work, collected in patent publication US20020058028A1, “METHOD OF IN SITU DIAGNOSIS BY SPECTROSCOPIC ANALYSIS OF BIOLOGICAL STAIN COMPOSITIONS” (priority 1999, published 2002).
# Read-outs that look alike come from different tables or passages of the source.
# Tests used:
# Schistosoma mansoni = settings: in vitro
# Staphylococcus aureus = settings: for active concentration against epidemic strains of methicillin-resistant Staphylococcus aureus: compared with vancomycin
# [1] = system: human epidermoid carcinoma (A-253) cells
# C. albicans [2] = settings: energy dose 1.32 J at 2.04 J/cm2
# HeLa cells = settings: for incubation time to saturation of uptake: 10(−5) M
# Trichoderma Viride = settings: outside the body
# [3] = system: microtubule cytoskeleton of cultured cells; settings: untreated control cells normal
# solid Ehrlich carcinomas = settings: mice; laser 647 nm and 676 nm
# bladder carcinoma cells = settings: in vitro; versus Azure C, Methylene violet, Thionin, methylene green, haematoporphyrin
# [4] = system: local tumor recurrence in the area of the anastomosis
# [5] = system: several other Candida spp.
# [6] = system: influenza or encephalomyelitis viruses; settings: human blood plasma; plasma proteins not significantly altered
# C. albicans [7] = settings: conditions employed
compound,measurement,setting,value
CN(C)c1ccc2cc3ccc(N(C)C)cc3nc2c1 [acridine orange],killing upon exposure to light,Schistosoma mansoni,kills
Cc1cc(=[N+](C)C)cc2sc3cc(N(C)C)cc(C)c3nc1-2.[Cl-] [dimethyl methylene blue],active concentration against epidemic strains of methicillin-resistant Staphylococcus aureus,Staphylococcus aureus,lower than that of vancomycin
same,"increase in bactericidal activity on illumination, typical",Staphylococcus aureus,~4 fold
CCCCN1C(=O)C(=C/C=C/C=C2\Oc3ccccc3N2CCCS(=O)(=O)[O-])C(=O)N(CCCC)C1=S.[Na+] [merocyanine 540],white light dose for ninety % reduction of clonogenicity,[1],1.5 J/cm2
CN(C)c1ccc2nc3ccc(=[N+](C)C)cc-3sc2c1 [methylene blue],sensitization to killing by GaAs laser light,C. albicans [2],able to sensitize
same,incubation time to saturation of uptake,HeLa cells; HeLa cells,6 h
same,"cell photoinactivation, comparison",HeLa cells; HeLa cells,higher than that produced by TB
same,concentration at which dark damage was not observed,"HeLa cells; HeLa cells, elevated photoinactivation detected at this concentration",10(−5) M
same,killing upon exposure to light,Schistosoma mansoni,kills
same,killing upon illumination,Trichoderma Viride,kill
same,microtubule network after photodynamic treatment,[3],considerable or severe disorganization of the microtubule network
same,tumor necrosis,"small adenocarcinomas; 72 hours after PDT-treatment, proven experimentally",4-5 mm
same,tumors destroyed,small adenocarcinomas; after the second PDT-treatment,6 out of 10
same,carcinomas with inhibited growth,small adenocarcinomas; after the treatment,Four
same,tumor destruction,solid Ehrlich carcinomas,"significant tumor destruction, including complete tumor destruction"
same,"increase in bactericidal activity on illumination, typical",Staphylococcus aureus,~4 fold
same,phototoxicity compared with other dyes,bladder carcinoma cells,most phototoxic
same,local tumor growth in treated areas,[4]; after PDT-treatment,no local tumor growth within 6 months
same,complications during or after PDT,[4]; experimental or clinical,no experimental or clinical complications
CCNc1cc2[s+]c3cc(NCC)c(C)cc3nc2cc1C.[Cl-] [new methylene blue],active concentration against epidemic strains of methicillin-resistant Staphylococcus aureus,Staphylococcus aureus,lower than that of vancomycin
same,"increase in bactericidal activity on illumination, typical",Staphylococcus aureus,~4 fold
"Cc1cc2nc3ccc(N(C)C)cc3[s+]c2cc1N.[Cl-] [toluidine blue O, 3-amino-7-(dimethylamino)-2-methyl phenothiazin-5-ium chloride]",white light dose for ninety % reduction of clonogenicity,[1],1.0 J/cm2
same,concentration at which dark damage was not observed,HeLa cells,10(−5) M
same,incubation time to saturation of uptake,HeLa cells; HeLa cells,12 h
same,ATP levels after photodynamic treatment,Kluyveromyces marxianus,lowered the ATP levels
same,enzyme inhibition after treatment with dye and light,Kluyveromyces marxianus,"inhibition of alcohol dehydrogenase, cytochrome c oxidase, glyceraldehyde-3-phosphate dehydrogenase and hexokinase"
same,clonogenicity,Kluyveromyces marxianus; photosensitizer with light,induce loss of clonogenicity
same,microtubule network after photodynamic treatment,[3],considerable or severe disorganization of the microtubule network
same,sensitization to killing by HeNe laser light,[5],able to sensitize
same,virus inactivation by light in presence of dye,[6],inactivated by light
CN[C@H](CC(C)C)C(=O)N[C@H]1C(=O)N[C@@H](CC(N)=O)C(=O)N[C@H]2C(=O)N[C@H]3C(=O)N[C@H](C(=O)N[C@H](C(=O)O)c4cc(O)cc(O)c4-c4cc3ccc4O)[C@H](O)c3ccc(c(Cl)c3)Oc3cc2cc(c3O[C@@H]2O[C@H](CO)[C@@H](O)[C@H](O)[C@H]2O[C@H]2C[C@](C)(N)[C@H](O)[C@H](C)O2)Oc2ccc(cc2Cl)[C@H]1O [vancomycin],concentration against epidemic strains of methicillin-resistant Staphylococcus aureus,Staphylococcus aureus; comparator,≥ 0.5 µM
Dihaematoporphyrin ester,photosensitizer effectiveness,C. albicans [7],not an effective photosensitizer
aluminum disulphonated phthalocyanine,sensitization to killing by GaAs laser light,C. albicans [2],not
rhodamine 123,white light dose for ninety % reduction of clonogenicity,[1],1.2 J/cm2
